Reference: US4451457A, “Cyclodextrin and method for promoting the proliferation of intestinal bifidobacteria” (Kureha Kagaku Kogyo Kabushiki Kaisha, priority 1981, dated 1984)

What was measured:
[1] = Acute toxicity, LD50 in mice; format: in vivo, Mouse; details: in vivo, male mouse
Description: (§1) Each cyclodextrin (α-, β- and γ-) was administered via the following routes to rats and mice and LD50 was measured.

Mouse = assay: Acute toxicity, LD50 in mice; format: in vivo; details: female mouse
Description: as §1

[2] = Acute toxicity, LD50 in rats; format: in vivo, rat; details: in vivo, male rat
Description: as §1

rat = assay: Acute toxicity, LD50 in rats; format: in vivo; details: female rat
Description: as §1

bifidobacteria = assay: Intestinal proliferation of bifidobacteria in mice, viable count in feces; format: in vivo, female C3H/He mice; details: for Rate of proliferation (B/A), bifidobacteria / Viable count 7 days after (B) administration, bifidobacteria: 2.0 g/kg/day; for Rate of proliferation (B/A), bifidobacteria: 7 days after / before; for Viable count 7 days after (B) administration, bifidobacteria / Viable count before (A) administration, bifidobacteria: average of five mice
Description: The activity of cyclodextrin in promoting the intestinal proliferation of bifidobacteria was recognized by the results of test as described below. Namely, cyclodextrin was administered orally to test animals such as mouse at the dose of 2 g/kg of body weight per day for 2 weeks, and the number of viable intestinal bacteria such as bifidobacteria, Escherichia coli, Lactobacilli and Bacteroides sp. in the feces of the test animal seven days after the administration were counted by the conventional method. […] Namely, when the bifidobacteria-proliferating agent of the invention is administered to the living body, it is possible to proliferate only bifidobacteria in the intestine of the living body without disturbing the intraintestinal bacterial flora.
(§2) Each solution or suspension was administered to female C3H/He mice at 8th week after birth, one group consisting of 5 animals and the number of groups being four, the dosage being 2.0 g of cyclodextrin/kg of body weight/day, continuously for 2 weeks.
(§3) Before and 7 days after the administration, feces of each mouse was collected, and after diluting the collected feces with 100 times by weight of an anaerobic phosphate buffer and grinding the diluted feces, each 0.1 ml of the ground feces was inoculated on each culture medium (refer to Table 3) for the specified bacterial species, and the thus inoculated culture media were incubated at 37° C. for one to five days under the aerobic conditions or anaerobic conditions (according to the anaerobic grove box method).
BS agar anaerobic, 37° C., 5 days
(§4) After the incubation was over, the number of bifidobacteria, Escherichia coli, Lactobacilli and Bacteroides sp. in the culture medium was counted. The results are shown in Tables 4 to 7, the counts being the average of five mice.

Lactobacilli = assay: Viable count of Lactobacilli in feces of mice; format: in vivo, female C3H/He mice; details: for Rate of proliferation (B/A), Lactobacilli / Viable count 7 days after (B) administration, Lactobacilli: 2.0 g/kg/day; for Rate of proliferation (B/A), Lactobacilli: 7 days after / before; for Viable count 7 days after (B) administration, Lactobacilli / Viable count before (A) administration, Lactobacilli: average of five mice
Description: as §2, §3, §4

Bacteroides sp. = assay: Viable count of Bacteroides sp. in feces of mice; format: in vivo, female C3H/He mice; details: for Rate of proliferation (B/A), Bacteroides sp. / Viable count 7 days after (B) administration, Bacteroides sp.: 2.0 g/kg/day; for Rate of proliferation (B/A), Bacteroides sp.: 7 days after / before; for Viable count 7 days after (B) administration, Bacteroides sp. / Viable count before (A) administration, Bacteroides sp.: average of five mice
Description: as §2, §3
NBGT agar same as above
as §4

Escherichia coli = assay: Viable count of Escherichia coli in feces of mice; format: in vivo, female C3H/He mice; details: for Rate of proliferation (B/A), Escherichia coli / Viable count 7 days after (B) administration, Escherichia coli: 2.0 g/kg/day; for Rate of proliferation (B/A), Escherichia coli: 7 days after / before; for Viable count 7 days after (B) administration, Escherichia coli / Viable count before (A) administration, Escherichia coli: average of five mice
Description: as §2, §3
DHL agar aerobic, 37° C., one day
as §4

With OC[C@H]1O[C@@H]2O[C@H]3[C@H](O)[C@@H](O)[C@@H](O[C@H]4[C@H](O)[C@@H](O)[C@@H](O[C@H]5[C@H](O)[C@@H](O)[C@@H](O[C@H]6[C@H](O)[C@@H](O)[C@@H](O[C@H]7[C@H](O)[C@@H](O)[C@@H](O[C@H]1[C@H](O)[C@H]2O)O[C@@H]7CO)O[C@@H]6CO)O[C@@H]5CO)O[C@@H]4CO)O[C@@H]3CO [α-cyclodextrin] the LD50 ([1]; ip, intraperitoneal) was > 900 mg/kg, the LD50 ([1]; sc, subcutaneous) was > 900 mg/kg and the LD50 ([1]; oral) was > 12500 mg/kg. The LD50 (Mouse; intraperitoneal) was > 900 mg/kg, the LD50 (Mouse; oral) was > 12500 mg/kg and the LD50 (Mouse; subcutaneous) was > 900 mg/kg. For the same compound, the LD50 ([2]; ip, intraperitoneal) was > 1200 mg/kg, the LD50 ([2]; sc, subcutaneous) was > 1500 mg/kg and the LD50 ([2]; oral) was > 12000 mg/kg. The LD50 (rat; intraperitoneal) was > 1200 mg/kg, the LD50 (rat; oral) was > 12000 mg/kg and the LD50 (rat; subcutaneous) was > 1500 mg/kg.
For OC[C@H]1O[C@@H]2O[C@H]3[C@H](O)[C@@H](O)[C@@H](O[C@H]4[C@H](O)[C@@H](O)[C@@H](O[C@H]5[C@H](O)[C@@H](O)[C@@H](O[C@H]6[C@H](O)[C@@H](O)[C@@H](O[C@H]7[C@H](O)[C@@H](O)[C@@H](O[C@H]8[C@H](O)[C@@H](O)[C@@H](O[C@H]1[C@H](O)[C@H]2O)O[C@@H]8CO)O[C@@H]7CO)O[C@@H]6CO)O[C@@H]5CO)O[C@@H]4CO)O[C@@H]3CO [β-cyclodextrin], the LD50 ([1]; ip, intraperitoneal) was > 900 mg/kg, the LD50 ([1]; sc, subcutaneous) was > 900 mg/kg and the LD50 ([1]; oral) was > 12500 mg/kg. The LD50 (Mouse; intraperitoneal) was > 900 mg/kg, the LD50 (Mouse; oral) was > 12500 mg/kg and the LD50 (Mouse; subcutaneous) was > 900 mg/kg. For the same compound, the LD50 ([2]; ip, intraperitoneal) was > 1200 mg/kg, the LD50 ([2]; sc, subcutaneous) was > 1500 mg/kg and the LD50 ([2]; oral) was > 12000 mg/kg. The LD50 (rat; intraperitoneal) was > 1200 mg/kg, the LD50 (rat; oral) was > 12000 mg/kg and the LD50 (rat; subcutaneous) was > 1500 mg/kg. The “Rate of proliferation (B/A), bifidobacteria” value (from here on “Rate … bifidobacteria”) (bifidobacteria) was 1385, the “Viable count 7 days after (B) administration, bifidobacteria” value (from here on “Viable count 7 days … bifidobacteria”) (bifidobacteria) was 1.8 × 10^8 per g of the feces and the “Viable count before (A) administration, bifidobacteria” value (“Viable count before … bifidobacteria” for short) (bifidobacteria) was 1.3 × 10^5 per g of the feces. The “Rate of proliferation (B/A), Lactobacilli” value (“Rate … Lactobacilli” for short) (Lactobacilli) was 1.47, the “Viable count 7 days after (B) administration, Lactobacilli” value (“Viable count 7 days … Lactobacilli” below) (Lactobacilli) was 2.2 × 10^9 per g of the feces and the “Viable count before (A) administration, Lactobacilli” value (from here on “Viable count before … Lactobacilli”) (Lactobacilli) was 1.5 × 10^9 per g of the feces. For the same compound, the “Rate of proliferation (B/A), Bacteroides sp.” value (shortened to “Rate … Bacteroides sp.”) (Bacteroides sp.) was 1.06, the “Viable count 7 days after (B) administration, Bacteroides sp.” value (“Viable count 7 days … Bacteroides sp.” below) (Bacteroides sp.) was 3.7 × 10^8 per g of the feces and the “Viable count before (A) administration, Bacteroides sp.” value (“Viable count before … Bacteroides sp.” for short) (Bacteroides sp.) was 3.5 × 10^8 per g of the feces. For the same compound, the “Rate of proliferation (B/A), Escherichia coli” value (from here on “Rate … Escherichia coli”) (Escherichia coli) was 1.45, the “Viable count 7 days after (B) administration, Escherichia coli” value (“Viable count 7 days … Escherichia coli” below) (Escherichia coli) was 5.8 × 10^6 per g of the feces and the “Viable count before (A) administration, Escherichia coli” value (from here on “Viable count before … Escherichia coli”) (Escherichia coli) was 4.0 × 10^6 per g of the feces.
In the case of OC[C@H]1O[C@@H]2O[C@H]3[C@H](O)[C@@H](O)[C@@H](O[C@H]4[C@H](O)[C@@H](O)[C@@H](O[C@H]5[C@H](O)[C@@H](O)[C@@H](O[C@H]6[C@H](O)[C@@H](O)[C@@H](O[C@H]7[C@H](O)[C@@H](O)[C@@H](O[C@H]8[C@H](O)[C@@H](O)[C@@H](O[C@H]9[C@H](O)[C@@H](O)[C@@H](O[C@H]1[C@H](O)[C@H]2O)O[C@@H]9CO)O[C@@H]8CO)O[C@@H]7CO)O[C@@H]6CO)O[C@@H]5CO)O[C@@H]4CO)O[C@@H]3CO [γ-cyclodextrin], the LD50 ([1]; ip, intraperitoneal) is reported as > 900 mg/kg, the LD50 ([1]; sc, subcutaneous) is reported as > 900 mg/kg and the LD50 ([1]; oral) is reported as > 12500 mg/kg. For the same compound, the LD50 (Mouse; intraperitoneal) was > 900 mg/kg, the LD50 (Mouse; oral) was > 12500 mg/kg and the LD50 (Mouse; subcutaneous) was > 900 mg/kg. For the same compound, the LD50 ([2]; ip, intraperitoneal) was > 1200 mg/kg, the LD50 ([2]; sc, subcutaneous) was > 1500 mg/kg and the LD50 ([2]; oral) was > 12000 mg/kg. The LD50 (rat; intraperitoneal) was > 1200 mg/kg, the LD50 (rat; oral) was > 12000 mg/kg and the LD50 (rat; subcutaneous) was > 1500 mg/kg. For the same compound, the “Rate … bifidobacteria” value (bifidobacteria) was 90, the “Viable count 7 days … bifidobacteria” value (bifidobacteria) was 1.8 × 10^6 per g of the feces and the “Viable count before … bifidobacteria” value (bifidobacteria) was 2.0 × 10^4 per g of the feces. For the same compound, the “Rate … Lactobacilli” value (Lactobacilli) was 0.78, the “Viable count 7 days … Lactobacilli” value (Lactobacilli) was 7.0 × 10^8 per g of the feces and the “Viable count before … Lactobacilli” value (Lactobacilli) was 9.0 × 10^8 per g of the feces. The “Rate … Bacteroides sp.” value (Bacteroides sp.) was 3.00, the “Viable count 7 days … Bacteroides sp.” value (Bacteroides sp.) was 3.0 × 10^8 per g of the feces and the “Viable count before … Bacteroides sp.” value (Bacteroides sp.) was 1.0 × 10^8 per g of the feces. For the same compound, the “Rate … Escherichia coli” value (Escherichia coli) was 0.93, the “Viable count 7 days … Escherichia coli” value (Escherichia coli) was 7.0 × 10^6 per g of the feces and the “Viable count before … Escherichia coli” value (Escherichia coli) was 7.5 × 10^6 per g of the feces.
For dextrin [reference compound], the “Rate … bifidobacteria” value (bifidobacteria) was 0.70, the “Viable count 7 days … bifidobacteria” value (bifidobacteria) was 1.6 × 10^5 per g of the feces and the “Viable count before … bifidobacteria” value (bifidobacteria) was 2.3 × 10^5 per g of the feces. For the same compound, the “activity to the proliferation of bifidobacteria, in words” value (bifidobacteria; mouse, oral, Table 7) was “did not exhibit such an activity”, the “Rate … Lactobacilli” value (Lactobacilli) was 1.20 and the “Viable count 7 days … Lactobacilli” value (Lactobacilli) was 6.0 × 10^8 per g of the feces. The “Viable count before … Lactobacilli” value (Lactobacilli) was 5.0 × 10^8 per g of the feces, the “Rate … Bacteroides sp.” value (Bacteroides sp.) was 2.50 and the “Viable count 7 days … Bacteroides sp.” value (Bacteroides sp.) was 8.0 × 10^8 per g of the feces. The “Viable count before … Bacteroides sp.” value (Bacteroides sp.) was 3.2 × 10^8 per g of the feces, the “Rate … Escherichia coli” value (Escherichia coli) was 0.80 and the “Viable count 7 days … Escherichia coli” value (Escherichia coli) was 7.2 × 10^6 per g of the feces. For the same compound, the “Viable count before … Escherichia coli” value (Escherichia coli) was 9.0 × 10^6 per g of the feces.
